According to patent US20060128729A1, “Novel bicyclic heterocyclic compounds, process for their preparation and compositions containing them” (priority 2004, published 2006):
Where a name gives a salt, the structure may show the parent alone.

| SMILES | melting point [°C] |
| --- | --- |
| Cc1nn(C)c2c(Nc3ccc(O)c(Cl)c3)nc(-c3ccc(F)cc3)nc12.Cl | 238 to 240 |
| CCCc1nn(C)c2c(Nc3ccc(OC)c(F)c3)nc(-c3ccccc3OCC)nc12.Cl | 194 to 196 |
| Cc1nn(C)c2c(Nc3ccc(O)c(Cl)c3)nc(-c3cccs3)nc12.Cl | > 240 |
| Cc1nn(C)c2c(Nc3ccc(Cl)nc3)nc(-c3ccc(F)cc3)nc12.Cl | 248 to 250 |
| CC(=O)Nc1cc(Nc2nc(-c3ccc(F)cc3)nc3c(C)nn(C)c23)ccc1O.Cl | 250 to 252 |
| Cc1nn(C)c2c(Nc3ccc(C(N)=O)cc3)nc(-c3ccc(F)cc3)nc12.Cl | 272 to 274 |
| CCCc1nn(C)c2c(Nc3ccc(OC)c(F)c3)nc(C(F)(F)F)nc12.Cl | 136 to 138 |
| CCCc1nn(C)c2c(Nc3ccc(Cl)c(OC)c3)nc(-c3ccc(F)cc3)nc12.Cl | 230 to 232 |
| CCCc1nn(C)c2c(Nc3ccc(O)c(F)c3)nc(-c3ccc(F)cc3)nc12.Cl | 161 to 162 |
| Cc1nn(C)c2cc(-c3ccc(F)cc3)nc(Nc3ccc(Cl)nc3)c12.Cl | 215 to 218 |
| Cc1nn(C)c2cc(-c3ccc(F)cc3)nc(Nc3ccc(OC(F)(F)F)cc3)c12.Cl | 248 to 250 |
| CNS(=O)(=O)c1ccc(Nc2nc(-c3ccc(F)cc3)cc3c2c(C)nn3C)cc1.Cl | 293 to 295 |
| Cl.Fc1ccc(-c2nc(Nc3cccc(F)c3)c3cnn(-c4ccccc4)c3n2)cc1 | 210 to 213 |
| Cl.Fc1ccc(-c2nc(Nc3ccc(OC(F)(F)F)cc3)c3cnn(-c4ccccc4)c3n2)cc1 | 220 to 222 |
| Cc1nn(C)c2cc(-c3ccc(F)cc3)nc(Nc3ccc(Cl)c(C(F)(F)F)c3)c12.Cl | 223 to 225 |
| CCCc1nn(C)c2c(-c3ccc(O)c(C)c3)nc(-c3ccc(OC)c(OC)c3)nc12 [E 53, 4-[5-(3,4-dimethoxy-phenyl)-1-methyl-3-propyl-1H-pyrazolo[4,3-d]pyrimidin-7-yl]-2-methyl-phenol] | 198 to 200 |
| CCCc1nn(C)c2c(-c3ccc(O)c(C)c3)nc(-c3ccc(OC)c(O)c3)nc12 [E 54, 4-[5-(3-hydroxy,4-methoxy-phenyl)-1-methyl-3-propyl-1H-pyrazolo[4,3-d]pyrimidin-7-yl]-2-methyl-phenol] | 180 to 182 |
| CCCc1nn(C)c2c(-c3ccc(OC)c(C)c3)nc(-c3ccc(F)cc3)nc12 [E 58, 5-(4-fluoro-phenyl)-7-(4-methoxy-3-methyl-phenyl)-1-methyl-3-propyl-1H-pyrazolo[4,3-d]pyrimidine] | 136 to 138 |
| CCCc1nn(C)c2c(-c3ccc(OC)c(F)c3)nc(-c3ccc(F)cc3)nc12 [E 59, 7-(3-fluoro-4-methoxy-phenyl)-5-(4-fluoro-phenyl)-1-methyl-3-propyl-1H-pyrazolo[4,3-d]pyrimidine] | 174 to 176 |
| CCCc1nn(C)c2c(-c3ccc(OC)c(C)c3)nc(-c3ccccc3)nc12 [E 60, 7-(4-methoxy-3-methyl-phenyl)-1-methyl-5-phenyl-3-propyl-1H-pyrazolo[4,3-d]pyrimidine] | 158 to 160 |
| CCCc1nn(C)c2c(-c3ccc(SC)cc3)nc(-c3ccc(F)cc3)nc12 [E 62, 5-(4-fluoro-phenyl)-1-methyl-7-(4-methylsulfanyl-phenyl)-3-propyl-1H-pyrazolo[4,3-d]pyrimidine] | 114 to 116 |
| CCCc1nn(C)c2c(-c3ccc(C)cc3)nc(-c3ccc(F)cc3)nc12 [E 63, 5-(4-fluoro-phenyl)-1-methyl-3-propyl-7-p-tolyl-1H-pyrazolo[4,3-d]pyrimidine] | 148 to 150 |
| CCCc1nn(C)c2c(-c3ccccc3)nc(-c3ccc(F)cc3)nc12 [E 64, 5-(4-fluoro-phenyl)-1-methyl-7-phenyl-3-propyl-1H-pyrazolo[4,3-d]pyrimidine] | 115 to 118 |

Now from value to molecule:

| melting point [°C] | SMILES |
| --- | --- |
| 200 to 204 | CCCc1nn(C)c2c(Nc3ccc(Cl)c(OC)c3)nc(-c3cccs3)nc12.Cl |
| 246 to 250 | CCCc1nn(C)c2c(Nc3ccc4c(c3)OCO4)nc(-c3cccs3)nc12.Cl |
| 222 to 224 | COc1cc(Nc2nc(-c3ccccc3)nc3c(C)nn(C)c23)ccc1Cl.Cl |
| 180 | CCCc1nn(C)c2c(Nc3ccc(O)c(Cl)c3)nc(-c3ccccc3)nc12.Cl |
| 228 to 230 | CCCc1nn(C)c2c(Nc3ccc(Cl)c(OC)c3)nc(-c3ccccc3)nc12.Cl |
| 161 to 164 | CCCc1nn(C)c2c(Nc3ccc(F)cc3)nc(-c3ccc(F)cc3)nc12.Cl |
| > 240 | COc1cc(Nc2nc(-c3cccs3)nc3c(C)nn(C)c23)ccc1Cl.Cl |
| 218 to 220 | Cc1nn(C)c2c(Nc3cccc(F)c3)nc(-c3ccccc3)nc12.Cl |
| 220 to 222 | CCCc1nn(C)c2c(Nc3cccc(C(F)(F)F)c3)nc(-c3ccc(F)cc3)nc12.Cl |
| 178 to 181 | CCCc1nn(C)c2c(Nc3ccc(OC)c(OC)c3)nc(-c3ccc(F)cc3)nc12.Cl |
| 200 to 202 | CCCc1nn(C)c2c(Nc3ccc(O)c(Cl)c3)nc(-c3ccc(F)cc3)nc12.Cl |
| 126 to 128 | CCCc1nn(C)c2c(Oc3ccc(F)cc3)nc(-c3ccccc3)nc12 |
| 220 to 222 | Cc1nn(C)c2cc(-c3ccc(F)cc3)nc(Nc3cccc(C(F)(F)F)c3)c12.Cl |
| 258 to 260 | CCCc1nn(C)c2c(Nc3ccc(OC)c(Cl)c3)nc(-c3cccs3)nc12.Cl |
| 272 to 274 | Cc1nc2cc(Nc3nc(-c4ccccc4)nc4c(C)nn(C)c34)ccc2o1.Cl |
| 246 to 250 | CCCc1nn(C)c2c(Nc3ccc4c(c3)OCO4)nc(-c3cccs3)nc12 (as salt: hydrochloride) [E 52, benzo[1,3]dioxol-5-yl-(1-methyl-3-propyl-5-thiophen-2-yl-1H-pyrazolo[4,3-d]pyrimidin-7-yl)-amine hydrochloride] |
| 142 to 144 | CCCc1nn(C)c2c(N3CCC(O)CC3)nc(-c3ccc(OC)c(OC)c3)nc12 [E 20, 1-[5-(3,4-dimethoxy-phenyl)-1-methyl-3-propyl-1H-pyrazolo[4,3-d]pyrimidin-7-yl]-piperidin-4-ol] |
| 182 to 184 | CCCc1nn(C)c2c(-c3ccc(O)c(Cl)c3)nc(-c3ccc(F)cc3)nc12 [E 55, 2-chloro-4-[5-(4-fluoro-phenyl)-1-methyl-3-propyl-1H-pyrazolo[4,3-d]pyrimidin-7-yl]-phenol] |
| 204 to 206 | CCCc1nn(C)c2c(-c3ccc(O)c(C)c3)nc(-c3ccccc3)nc12 [E 57, 2-methyl-4-(1-methyl-5-phenyl-3-propyl-1H-pyrazolo[4,3-d]pyrimidin-7-yl)-phenol] |
| 158 to 160 | CCCc1nn(C)c2c(-c3ccc(OC)c(F)c3)nc(-c3ccccc3)nc12 [E 61, 7-(3-fluoro-4-methoxy-phenyl)-1-methyl-5-phenyl-3-propyl-1H-pyrazolo[4,3-d]pyrimidine] |
| 142 to 144 | Cc1nn(C)c2c(-c3ccc4c(c3)OCO4)nc(-c3ccccc3)nc12 [E 65, 7-benzo[1,3]dioxol-5-yl-1,3-dimethyl-5-phenyl-1H-pyrazolo[4,3-d]pyrimidine] |
| 150 to 152 | Cc1nn(C)c2c(-c3ccccc3)nc(-c3ccc(F)cc3)nc12 [E 66, 5-(4-fluoro-phenyl)-1,3-dimethyl-7-phenyl-1H-pyrazolo[4,3-d]pyrimidine] |
